Test results taken from US20240181015A1, “EFFECT OF GHRH ANTAGONISTS IN DIABETES AND OBESITY” (AUGUSTA UNIVERSITY RESEARCH INSTITUTE, INC., priority 2021, published 2024).
Ends that are not written are not given here.

How the values were obtained:
[1] = system: C57BL/6 wild type male mice fed on high fat diet (HFD); assay: CLAMS (body weight gain, activity-ambient) in HFD mice treated with AVR-352; format: in vivo; details: HFD 12 weeks, then 25 μg/kg/day subcutaneous for 4 weeks, vs untreated HFD mice
Experimental: 8 to 10-Week old C57BL/6 wild type male mice were fed on a high fat diet (HFD) for 12-weeks. Mice were then treated with the GHRH antagonist AVR-352 (25 μg/kg/day, subcutaneous) or vehicle for 4-weeks. At the end of treatment, mice were placed individually in metabolic (CLAMS) system. Body weight was recorded at beginning of treatment and at time of CLAMS after 4-weeks of treatment with the GHRH antagonist AVR-352 or vehicle. Activity-ambient (counts/day) was also measured.

[2] = system: wild type mice fed on high fat diet (HFD); assay: Postprandial triglyceride plasma levels after oral lipid loading in high fat diet fed mice; format: in vivo; details: HFD 16 weeks, 25 μg/kg/day subcutaneous every other day for last 4 weeks, up to 2 hours after oral lipid loading
Text: Both 8-week old wild type mice with intact ghrhr gene, and ghrhr conditional knock out mice were fed a high fat or control diet for 16 weeks. The effect of selective deletion of the ghrhr gene in the small intestine versus the effect of the GHRH antagonist AVR-352 or vehicle treatment for the last 4 weeks in wild type mice when both groups were fed a high fat diet, on fasting and postprandial triglyceride plasma levels were compared. The Ghrhr floxed mice using embryonic ES Cells was generated (International Mouse Phenotyping Consortium—IMPC). The ES cell clones were targeted with a floxed allele of Ghrhr with exons 2-5 flanked by loxP sites, and were injected into C57BL/6-Albino blastocysts for chimera production and generation of Ghrhr flox/wt mice (Animal Models Core, UNC, Project ID: Ex231). The colony was expanded and obtained the homozygous Ghrhr flox/flox mice, which were cross bred with mice expressing Cre recombinase in the small intestine (B6.Cg-Tg(Vil1-cre) 1000 Gum/J, Jackson Laboratories). Recombinase activity results in the deletion of loxP flanked targets in the intestine.
Mice with the deletion of GHRH receptor in small intestine epithelium (HOMO) were fed on high fat diet (HFD) or control diet (Ctrl diet) for 16 weeks. AVR-352 (25 μg/kg/day, subcutaneous, every other day), was given to wild type mice after 12 weeks of high fat diet (HFD) for 4 weeks.

[3] = system: diet-induced obesity (DIO) C57BL/6 mice; assay: Fasting triglyceride levels in diet-induced obesity (DIO) C57BL/6 mice; format: in vivo; details: HFD 24 weeks; 25 μg/kg/day subcutaneous for last 12 weeks; vs untreated HFD mice
Experimental: C57BL/6 mice, 12 weeks of age were fed on a normal control diet (CD) or diet supplemented with high levels of fat (HFD) for 12 weeks, before treatment with GHRH antagonist, AVR-352 (25 μg/kg/day, subcutaneous) or vehicle for 12 weeks. Total triglycerides in plasma (TG ELISA kit, MyBioSource) were measured.

[4] = system: wild type mice fed on high fat diet (HFD); assay: ApoB-48 and MTTP protein content in scrapped small intestine epithelium of HFD mice; format: in vivo; details: 25 μg/kg/day subcutaneous every other day for 4 weeks, vs untreated HFD mice
Experimental: The protein expression of microsomal triglyceride transfer protein (MTTP), an enzyme involved in ApoB-48 lipoprotein assembly, in protein extracts isolated from scrapped epithelium of whole small intestine of mice were evaluated. Densitometric analysis (optical density O.D., fold over Ctrl diet fed mice) of ApoB-48 (FIG. 11B) and MTTP ([…]) corrected by protein loading (vinculin) (FIG. 11A) was performed. Mice fed on HFD were treated with GHRH antagonist AVR-352 (Antago, 25 μg/kg/day, subcutaneous, every other day for 4 weeks).

[5] = system: human small intestine epithelial cells (hulECs); assay: ApoB-48 secretion by huIEC loaded with oleic acid; format: cell-based
Experimental: FIG. 14 is a bar graph showing confluent monolayers of human small intestine epithelial cells (hulECs, ATCC) were cultured in 6-well plates and loaded or not with oleic acid after treatments. ApoB-48 was measured in culture supernatants. GHRH agonist JI-34 (1 μM, 1 h) impaired the actions of the GLP-1 receptor agonist exendin 4 (Ex-4, 10 nM, 2 h) on reducing the ApoB48 secretion upon loading hulEC with oleic acid (0.5 mM, 3 h). This effect was completely blunted by co-treatment of cells with the GHRH antagonist MIA-602 (1 μM, 1 h).
FIG. 15 is a bar graph showing confluent monolayers of human small intestine epithelial cells (hulECs, ATCC) were cultured in 6-well plates and loaded or not with oleic acid after treatments. ApoB-48 was measured in culture supernatants.
Confluent monolayers of human small intestine epithelial cells (hulECs, ATCC) were cultured in 6-well plates and were either loaded with oleic acid or not loaded with oleic acid after treatment. ApoB-48 was measured in culture supernatants (MyBioSource).

[6] = system: db/db mice; assay: Fasting blood glucose, HbA1c and glucagon in db/db mice; format: in vivo; details: 25 μg/kg/day subcutaneous for 12 weeks, vs untreated db/db mice
Experimental: Male db/db mice, 12 weeks of age were treated with the GHRH antagonist MIA-602 (25 μg/kg/day, subcutaneous, n=6) or vehicle (untreated, n=6/group) for 12 weeks. Samples were obtained from tail bleeding to determine (A) Fasting blood glucose (AlphaTRAK), (B) HbA1c (Crystal Chem) and (C) Glucagon.

[7] = system: rat small intestine epithelial cells (IEC); details: U.S. Pat. No. 10,201,588; cited from earlier work
[8] = system: C57BL/6 male mice fed on high fat diet (HFD); assay: CLAMS (food intake, body weight gain, activity-ambient, RER) in HFD mice treated with MIA-602; format: in vivo; details: HFD 24 weeks, 25 μg/kg/day subcutaneous for last 12 weeks
Experimental: 12-Week old C57BL/6 male mice were fed on a high fat diet (HFD) or control diet (CD) for 12-weeks. Mice fed on HFD were treated with the GHRH antagonist MIA-602 (25 μg/kg/day, subcutaneous) or vehicle for 12-weeks. At the end of treatment, mice were placed individually in metabolic (CLAMS) system and a) food intake, b) body weight gain, c) activity-ambient, and d) respiratory exchange ratio were measured.

[9] = system: db/db mice; assay: MTTP activity and ApoB-48 protein expression in jejunum protein extracts of db/db mice; format: in vivo; details: protein extracts from jejunum of db/db mice, 25 μg/kg/day s.c.
Experimental: Protein extracts were isolated from jejunum of diabetic (db/db) mice and lean control mice. Microsomal triglyceride transfer protein (MTTP) activity (pmole/μg protein/hour) was measured in protein extracts from diabetic (db/db) mice versus lean control mice treated or not with GHRH antagonist MIA-602. Further, ApoB-48 protein expression determined by densitometric analysis (optical density, O.D.) of ApoB-48 corrected by protein loading (vinculin) was also performed in protein extracts from diabetic (db/db) mice versus lean control mice treated or not with GHRH antagonist MIA-602.

[10] = system: db/db mice; assay: Fasting plasma triglycerides, ApoB-48 and VLDL (ELISA) in db/db mice treated with MIA-602; format: in vivo; details: fasting state, 25 μg/kg/day subcutaneous every other day for 4 weeks, vs untreated db/db mice
Experimental: Obese 20-week old male diabetic (db/db) mice were treated with the GHRH antagonist MIA-602 (25 μg/kg/day, subcutaneous, every other day) or vehicle (untreated, n=6/group) for 4 weeks. Total triglycerides (mg/dl), ApoB-48-containing lipoproteins (ApoB-48, ng/ml), and very low density lipoprotein (VLDL, mg/dl) in plasma obtained from mice in the fasting state were measured by ELISA (MyBioSource).
Given the high incidence of T2D and obesity and its association with CVD, experiments were carried out to investigate whether GHRH receptor antagonist MIA-602 administered subcutaneous suppresses elevation of TRL in mice homozygous for the diabetes spontaneous mutation Leprdb-BKS db (db/db), a valid model of human T2D/obesity. Heterozygous for Leprdb were used as lean controls.
GHRH antagonist MIA-602 (25 μg/kg/day, subcutaneous, every other day), was given to a sub-group of 20 weeks old db/db mice for 4 weeks. FIGS. 2A-2C show the effect of the treatment with MIA-602 on triglycerides, ApoB-48, and very low density lipoprotein (VLDL) levels, respectively, in db/db mice.

[11] = system: STZ-rats; details: STZ-rats (T1D model); U.S. Pat. No. 10,201,588; cited from earlier work

5FPhAC-Ada-Tyr-DArg-Asp-Ala-Ile-5FPhe-Thr-Ala-Har-Tyr(Me)-Arg-Lys-Val-Leu-Abu-Gln-Leu-Ser-Ala-Arg-Lys-Leu-Leu-Gln-Asp-Ile-Nle-DArg-Har-Ada-NH2 [AVR-352]
daily activity-ambient, dark cycle ([1]; dark cycle): significantly higher | daily activity-ambient, light cycle ([1]; light cycle): no significant differences | body weight gain (%) [1]: significantly lower | postprandial increase of triglyceride plasma levels [2]: significantly blunted | fasting total triglycerides in plasma [3]: significantly reduced | ApoB-48 protein content in small intestine epithelium [4]: significant reduction | MTTP protein content in small intestine epithelium [4]: without significantly affecting

GHRH: native growth hormone releasing hormone, the naturally occurring ligand of GHRH receptor (YADAIFTNSYRKVLGQLSARKLLQDIMSRQQGESNQERGARARL; ends and bridges not checked; UniProt P01286 32-75, looked up) [reference compound]
ApoB-48 released in the culture medium, different concentrations ([5]; different concentrations of native GHRH): increased levels of ApoB-48 were released in the culture medium in a dose-dependent manner

Tyr-Ala-Asp-Ala-Ile^5-Phe-Thr-Asn-Ser-Tyr^10-Arg-Lys-Val-Leu-Gly^15-Gln-Leu-Ser-Ala-Arg^20-Lys-Leu-Leu-Gln-Asp^25-Ile-Met-Ser-Arg^29-NH2 [MIA-602]
fasting blood glucose level [6]: modest but significant reduction | glucagon levels [6]: significant reduction | hemoglobin A1c (HbA1c) level [6]: modest but significant reduction | ApoB-48 lipoproteins in rat IEC in vitro [7]: reduced | respiratory exchange ratio (RER) ([8]; vs non-treated mice): slightly but significantly lower | body weight gain ([8]; vs untreated HFD mice): significant reduction | daily activity-ambient ([8]; vs untreated HFD mice): significant increase | food intake ([8]; vs untreated HFD mice): No changes | impaired signaling of Ex-4 in the presence of JI-34 (ApoB-48 secretion) ([5]; MIA-602 1 μM, 1 h co-treatment with JI-34 1 μM and Ex-4 10 nM): completely restored | microsomal triglyceride transfer protein (MTTP) activity [9]: not associated with significant changes | ApoB-48 levels (densitometry, corrected by vinculin) ([9]; vs untreated): significantly lower levels | ApoB-48-containing lipoproteins in plasma [10]: significantly reduced | total triglycerides in plasma [10]: significantly reduced | very low density lipoprotein (VLDL) in plasma [10]: significantly reduced | ApoB-48 lipoproteins in STZ-rats [11]: reduced
